Reference: ChEMBL document CHEMBL2375344, “Identification of pyrrolo[2,3-g]indazoles as new Pim kinase inhibitors” (Bioorg Med Chem Lett, 2013)

Experiments:
[1] = target: T1, Serine/threonine-protein kinase pim-3 (Homo sapiens, UniProt Q86V86); experiment: Inhibition of human full length Pim-3 using RSRHSSYPAGT as substrate assessed as residual activity after 30 mins in presence of [gamma-33P]ATP
[2] = target: T2, Serine/threonine-protein kinase pim-1 (Homo sapiens, UniProt P11309); experiment: Inhibition of human full length Pim-1 using RSRHSSYPAGT as substrate assessed as residual activity after 30 mins in presence of [gamma-33P]ATP
Target sequence in this assay (P11309 whole entry): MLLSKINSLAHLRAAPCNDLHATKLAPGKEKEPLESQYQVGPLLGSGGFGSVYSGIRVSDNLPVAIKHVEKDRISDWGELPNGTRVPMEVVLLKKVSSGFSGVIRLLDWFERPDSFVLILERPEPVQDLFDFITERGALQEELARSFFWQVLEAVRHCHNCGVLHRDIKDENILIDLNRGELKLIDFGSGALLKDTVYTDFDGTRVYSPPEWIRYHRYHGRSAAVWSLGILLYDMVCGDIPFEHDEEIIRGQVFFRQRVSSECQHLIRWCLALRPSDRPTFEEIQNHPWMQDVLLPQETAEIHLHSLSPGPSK

[3] = target: T1, Serine/threonine-protein kinase pim-3; experiment: Inhibition of human full length Pim-3 using RSRHSSYPAGT as substrate assessed as residual activity at 1 uM after 30 mins in presence of [gamma-33P]ATP; values are per cent of control
[4] = target: Serine/threonine-protein kinase pim-2 (Homo sapiens) (UniProt Q9P1W9); experiment: Inhibition of human full length Pim-2 using RSRHSSYPAGT as substrate assessed as residual activity at 1 uM after 30 mins in presence of [gamma-33P]ATP; values are per cent of control
Chain of Serine/threonine-protein kinase pim-2 (Homo sapiens) (Q9P1W9 whole entry, looked up): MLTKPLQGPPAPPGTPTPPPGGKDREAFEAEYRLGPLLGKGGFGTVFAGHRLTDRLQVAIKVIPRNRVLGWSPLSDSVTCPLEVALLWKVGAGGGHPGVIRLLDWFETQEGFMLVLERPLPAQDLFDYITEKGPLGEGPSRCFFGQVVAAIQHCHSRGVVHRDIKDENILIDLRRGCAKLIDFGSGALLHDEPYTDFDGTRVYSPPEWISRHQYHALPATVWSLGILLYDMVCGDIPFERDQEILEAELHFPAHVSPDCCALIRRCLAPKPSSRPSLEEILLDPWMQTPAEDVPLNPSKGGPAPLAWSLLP

[5] = target: T2, Serine/threonine-protein kinase pim-1; experiment: Inhibition of human full length Pim-1 using RSRHSSYPAGT as substrate assessed as residual activity at 1 uM after 30 mins in presence of [gamma-33P]ATP; values are per cent of control
Target sequence in this assay (P11309 whole entry, looked up): as the sequence (P11309 whole entry) above

[6] = target: T1, Serine/threonine-protein kinase pim-3; experiment: Inhibition of human full length Pim-3 using RSRHSSYPAGT as substrate assessed as residual activity at 10 uM after 30 mins in presence of [gamma-33P]ATP; values are per cent of control
[7] = target: Serine/threonine-protein kinase pim-2 (Homo sapiens) (UniProt Q9P1W9); experiment: Inhibition of human full length Pim-2 using RSRHSSYPAGT as substrate assessed as residual activity at 10 uM after 30 mins in presence of [gamma-33P]ATP; values are per cent of control
[8] = target: T2, Serine/threonine-protein kinase pim-1; experiment: Inhibition of human full length Pim-1 using RSRHSSYPAGT as substrate assessed as residual activity at 10 uM after 30 mins in presence of [gamma-33P]ATP; values are per cent of control
Target sequence in this assay (P11309 whole entry, looked up): as the sequence (P11309 whole entry) above

Row | SMILES | IC50 [1] | IC50 [2] | residual activity [3] | residual activity [4] | residual activity [5] | residual activity [6] | residual activity [7] | residual activity [8]
1 | CCc1[nH]c2c([N+](=O)[O-])cc3cn[nH]c3c2c1-c1ccccc1 | 119 nM | 230 nM | 31% | 77% | 43% | 36% | 84% | 51%
2 | CCOCc1c[nH]c2c([N+](=O)[O-])cc3cn[nH]c3c12 | – | – | 71% | 109% | 82% | 19% | 63% | 26%
3 | O=[N+]([O-])c1cc2cn[nH]c2c2c(-c3ccccc3)c[nH]c12 | 530 nM | 1000 nM | 38% | 82% | 52% | 21% | 70% | 28%
4 | Cc1c[nH]c2c([N+](=O)[O-])cc3cn[nH]c3c12 | – | – | 77% | 99% | 68% | 26% | 61% | 26%
5 | CCOC(=O)c1[nH]c2c([N+](=O)[O-])cc3cn[nH]c3c2c1-c1ccccc1 | – | – | 73% | 92% | 86% | 90% | 113% | 55%
6 | CCCc1c[nH]c2c(N)cc3cn[nH]c3c12 | – | – | 79% | 90% | 104% | 39% | 93% | 57%
7 | CCOC(=O)c1[nH]c2c(N)cc3cn[nH]c3c2c1C | – | – | 93% | 102% | 93% | 26% | 97% | 61%
8 | O=Cc1c[nH]c2c([N+](=O)[O-])cc3cn[nH]c3c12 | – | – | 76% | 117% | 97% | 25% | 70% | 27%
9 | C[Si](C)(C)c1cc2c([nH]1)c(N)cc1cn[nH]c12 | – | – | 67% | 93% | 94% | 24% | 111% | 52%
10 | Cc1c[nH]c2c(N)cc3cn[nH]c3c12 | – | – | 65% | 105% | 91% | 17% | 88% | 63%
11 | Nc1cc2cn[nH]c2c2cc[nH]c12 | 33 nM | 460 nM | 20% | 99% | 63% | 4% | 104% | 17%
12 | CCOC(=O)c1[nH]c2c(N)cc3cn[nH]c3c2c1-c1ccccc1 | – | – | 72% | 101% | 74% | 20% | 74% | 29%
13 | CCCc1c(C(=O)OC)[nH]c2c(N)cc3cn[nH]c3c12 | – | – | 82% | 105% | 71% | 12% | 78% | 26%
14 | CCOC(=O)c1[nH]c2c([N+](=O)[O-])cc3cn[nH]c3c2c1C | – | – | 72% | 105% | 78% | 47% | 97% | 72%
15 | CCCc1c[nH]c2c([N+](=O)[O-])cc3cn[nH]c3c12 | 260 nM | – | 24% | 66% | 78% | 6% | 27% | 54%
16 | CCc1[nH]c2c(N)cc3cn[nH]c3c2c1-c1ccccc1 | – | – | 72% | 91% | 92% | 23% | 75% | 44%
17 | C[Si](C)(C)c1cc2c([nH]1)c([N+](=O)[O-])cc1cn[nH]c12 | 470 nM | – | 51% | 103% | 63% | 9% | 64% | 17%
18 | CCCc1c(C(=O)OC)[nH]c2c([N+](=O)[O-])cc3cn[nH]c3c12 | 546 nM | – | 50% | 113% | 110% | 24% | 85% | 39%
19 | Nc1cc2cn[nH]c2c2c(-c3ccccc3)c[nH]c12 | – | – | 68% | 103% | 111% | 26% | 92% | 51%
20 | O=[N+]([O-])c1cc2cn[nH]c2c2cc[nH]c12 | – | – | 78% | 92% | 102% | 18% | 80% | 30%
